According to ChEMBL document CHEMBL2021794, “Synthesis, σ₁, σ₂-receptors binding affinity and antiproliferative action of new C1-substituted adamantanes” (Bioorg Med Chem, 2012):

Columns and labels:
BXPC-3 [1] = test: Growth inhibition of human BxPC3 cells after 48 hrs by SRB assay; type: functional; conditions: BXPC-3, 48 h
HUVEC = test: (§1) Growth inhibition of HUVEC cells after 48 hrs by SRB assay; type: cell-based; conditions: human, huvec, 48 h
[2] = as §1; type: cell-based; conditions: human, HUVEC cells
[3] = Displacement of [3H]BTX-B from Na+ channel site 2 after 60 mins by liquid scintillation spectroscopy
NCI-H460 = test: Growth inhibition of human NCI-H460 cells after 48 hrs by SRB assay; type: functional; conditions: NCI-H460, 48 h
SF-268 = test: Growth inhibition of human SF268 cells after 48 hrs by SRB assay; type: functional; conditions: SF-268, 48 h; for CC50: read-out: LC50 (the source's name)
[4] = Displacement of [3H](+)1-DTG from sigma-2 receptor expressed in rat cerebral cortex membranes after 2 hrs by liquid scintillation spectroscopy; type: cell membranes, Membrane
[5] = molecular target: Sigma non-opioid intracellular receptor 1 (Homo sapiens, UniProt Q99720); test: Displacement of [3H](+)pentazocine from sigma-1 receptor expressed in human Jurkat cell membranes after 2 hrs by liquid scintillation spectroscopy
HCT-116 = test: Growth inhibition of human HCT116 cells after 48 hrs by SRB assay; type: functional; conditions: HCT-116, 48 h; for CC50: read-out: LC50 (the source's name)
MIA PaCa-2 = test: Growth inhibition of human MIAPaCa2 cells after 48 hrs by SRB assay; type: functional; conditions: MIA PaCa-2, 48 h; for CC50: read-out: LC50 (the source's name)
SK-HEP1 = test: Growth inhibition of human SKHEP1 cells after 48 hrs by SRB assay; type: functional; conditions: SK-HEP1, 48 h; for CC50: read-out: LC50 (the source's name)
OVCAR-5 = test: Growth inhibition of human OVCAR5 cells after 48 hrs by SRB assay; type: functional; conditions: OVCAR-5, 48 h; for CC50: read-out: LC50 (the source's name)
MCF7 = test: Growth inhibition of human MCF7 cells after 48 hrs by SRB assay; type: functional; conditions: MCF7, 48 h; for CC50: read-out: LC50 (the source's name)
[6] = Selectivity ratio of IC50 for human sigma-1 receptor to IC50 for rat sigma-2 receptor
BXPC-3 [7] = test: Antitumor activity against human BxPC3 cells xenografted in SCID mouse assessed as tumor weight at 17 mg/kg, ip twice a week (reference value: 723 +/- 45 mg); type: functional; conditions: route intraperitoneal
DU-145 = test: Growth inhibition of human DU145 cells after 48 hrs by SRB assay; type: functional; conditions: DU-145, 48 h
HL-60(TB) = test: Growth inhibition of human HL-60(TB) cells after 48 hrs by SRB assay; type: functional; conditions: HL-60, 48 h
IGROV-1 = test: Growth inhibition of human IGROV1 cells after 48 hrs by SRB assay; type: functional; conditions: IGROV-1, 48 h; for CC50: read-out: LC50 (the source's name)
NCI-H69 = test: Growth inhibition of human NCI-H69 cells after 48 hrs by SRB assay; type: functional; conditions: NCI-H69, 48 h
HCT-15 = test: Growth inhibition of human HCT15 cells after 48 hrs by SRB assay; type: functional; conditions: HCT-15, 48 h
U-251 = test: Growth inhibition of human U251 cells after 48 hrs by SRB assay; type: functional; conditions: U-251, 48 h
DMS-114 = test: Growth inhibition of human DMS114 cells after 48 hrs by SRB assay; type: functional; conditions: DMS-114, 48 h; for CC50: read-out: LC50 (the source's name)
SF-295 = test: Growth inhibition of human SF295 cells after 48 hrs by SRB assay; type: functional; conditions: SF-295, 48 h
H69AR = test: Growth inhibition of human H69AR cells after 48 hrs by SRB assay; type: functional
PC-3 = test: Growth inhibition of human PC3 cells after 48 hrs by SRB assay; type: functional; conditions: PC-3, 48 h
BXPC-3 [8] = test: Antitumor activity against human BxPC3 cells xenografted in SCID mouse assessed as reduction in tumor volume at 17 mg/kg, ip twice a week; type: functional; conditions: BXPC-3, ip, route intraperitoneal
[9] = Growth inhibition of human MSC cells after 48 hrs by SRB assay; type: cell-based; conditions: for GI50 at 48 h: MSC cells; for LC50 / TGI: msc, 48 h
LOX IMVI = test: Growth inhibition of human LOXIMVI cells after 48 hrs by SRB assay; type: functional
[10] = (§2) Growth inhibition of NHDF cells after 48 hrs by SRB assay; type: cell-based; conditions: human, NHDF cells
NHDF = test: as §2; type: cell-based; conditions: human, nhdf, 48 h
[11] = read-out: LC50 (the source's name)

Sequence of Sigma non-opioid intracellular receptor 1 (Q99720 whole entry): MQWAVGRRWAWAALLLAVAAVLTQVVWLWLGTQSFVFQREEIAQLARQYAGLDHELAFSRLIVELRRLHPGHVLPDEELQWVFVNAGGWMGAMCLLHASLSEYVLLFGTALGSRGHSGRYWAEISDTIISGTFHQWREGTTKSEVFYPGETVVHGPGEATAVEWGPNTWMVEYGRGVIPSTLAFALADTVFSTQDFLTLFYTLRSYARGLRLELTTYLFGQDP

SMILES: c1ccc(CN2CCN(c3ccc(C(c4ccccc4)C45CC6CC(CC(C6)C4)C5)cc3)CC2)cc1 (configuration not stated)
- GI50 (BXPC-3 [1]): 7.51 µM
- LC50 (BXPC-3 [1]): 100 µM
- TGI (BXPC-3 [1]): 52.1 µM
- LC50 (HUVEC): 100 µM
- TGI (HUVEC): 100 µM
- GI50 at 48 h [2]: 76.8 µM
- IC50 [3]: 1.6 µM
- GI50 (NCI-H460): 54.7 µM
- LC50 (concentration killing 50% of cells) (NCI-H460): 100 µM
- TGI (NCI-H460): 100 µM
- CC50 (SF-268): 100 µM
- IC50 [4]: 0.119 µM
- IC50 [5]: 0.0633 µM
- GI50 (HCT-116): 12 µM
- TGI (HCT-116): 100 µM
- CC50 (HCT-116): 100 µM
- GI50 (MIA PaCa-2): 14.9 µM
- TGI (MIA PaCa-2): 100 µM
- CC50 (MIA PaCa-2): 100 µM
- GI50 (SK-HEP1): 23.5 µM
- TGI (SK-HEP1): 100 µM
- CC50 (SK-HEP1): 100 µM
- GI50 (OVCAR-5): 84.3 µM
- TGI (OVCAR-5): 100 µM
- CC50 (OVCAR-5): 100 µM
- GI50 (MCF7): 22.3 µM
- TGI (MCF7): 99.4 µM
- CC50 (MCF7): 100 µM
- Ratio IC50 [6]: 1.9

SMILES: O=c1[nH]cc(F)c(=O)[nH]1 [FLUOROURACIL]
- GI50 (BXPC-3 [1]): 8.2 µM
- TGI (BXPC-3 [1]): 100 µM
- LC50 (HUVEC): 100 µM
- TGI (HUVEC): 100 µM
- GI50 at 48 h [2]: 9.72 µM
- Activity (BXPC-3 [7]): 700%
- GI50 (DU-145): 9.37 µM
- TGI (DU-145): 100 µM
- CC50 (DU-145; [11]): 100 µM
- GI50 (HL-60(TB)): 100 µM
- TGI (HL-60(TB)): 100 µM
- GI50 (NCI-H460): 6.5 µM
- TGI (NCI-H460): 100 µM
- GI50 (IGROV-1): 9.1 µM
- TGI (IGROV-1): 100 µM
- CC50 (IGROV-1): 100 µM
- GI50 (NCI-H69): 100 µM
- TGI (NCI-H69): 100 µM
- CC50 (NCI-H69; [11]): 100 µM
- GI50 (HCT-15): 21 µM
- TGI (HCT-15): 100 µM
- GI50 (U-251): 82 µM
- TGI (U-251): 100 µM
- CC50 (U-251; [11]): 100 µM
- GI50 (DMS-114): 100 µM
- TGI (DMS-114): 100 µM
- CC50 (DMS-114): 100 µM
- GI50 (SF-295): 76 µM
- TGI (SF-295): 100 µM
- CC50 (SF-295; [11]): 100 µM
- GI50 (H69AR): 100 µM
- TGI (H69AR): 100 µM
- CC50 (H69AR; [11]): 100 µM
- GI50 (HCT-116): 9.9 µM
- TGI (HCT-116): 100 µM
- CC50 (HCT-116): 100 µM
- GI50 (MIA PaCa-2): 30 µM
- TGI (MIA PaCa-2): 100 µM
- CC50 (MIA PaCa-2): 100 µM
- GI50 (PC-3): 21 µM
- TGI (PC-3): 100 µM
- CC50 (PC-3; [11]): 100 µM
- inhibition in vivo at 17 mg/kg (BXPC-3 [8]): 3.25%
- GI50 (SK-HEP1): 6.3 µM
- TGI (SK-HEP1): 100 µM
- CC50 (SK-HEP1): 100 µM
- GI50 (OVCAR-5): 20 µM
- TGI (OVCAR-5): 100 µM
- CC50 (OVCAR-5): 100 µM
- GI50 (MCF7): 9.9 µM
- TGI (MCF7): 100 µM
- CC50 (MCF7): 100 µM
- GI50 at 48 h [9]: 8.92 µM
- LC50 [9]: 100 µM
- TGI [9]: 86.06 µM

SMILES: c1ccc(C(c2ccc(N3CCN(C4CCCCC4)CC3)cc2)C23CC4CC(CC(C4)C2)C3)cc1 (configuration not stated)
- GI50 (BXPC-3 [1]): 8.58 µM
- LC50 (BXPC-3 [1]): 100 µM
- TGI (BXPC-3 [1]): 76.8 µM
- IC50 [3]: 0.7 µM
- GI50 (NCI-H460): 47.3 µM
- LC50 (concentration killing 50% of cells) (NCI-H460): 100 µM
- TGI (NCI-H460): 100 µM
- GI50 (SF-268): 53.1 µM
- TGI (SF-268): 99.8 µM
- CC50 (SF-268): 100 µM
- IC50 [4]: 0.097 µM
- IC50 [5]: 0.00027 µM
- GI50 (HCT-116): 22.2 µM
- TGI (HCT-116): 100 µM
- CC50 (HCT-116): 100 µM
- GI50 (MIA PaCa-2): 20.2 µM
- TGI (MIA PaCa-2): 66.1 µM
- CC50 (MIA PaCa-2): 100 µM
- GI50 (OVCAR-5): 55.4 µM
- TGI (OVCAR-5): 98.2 µM
- CC50 (OVCAR-5): 100 µM
- GI50 (MCF7): 8.7 µM
- TGI (MCF7): 55 µM
- CC50 (MCF7): 100 µM
- Ratio IC50 [6]: 360

SMILES: c1ccc(C(c2ccc(N3CCNCC3)cc2)C23CC4CC(CC(C4)C2)C3)cc1 (configuration not stated)
- GI50 (BXPC-3 [1]): 3.61 µM
- LC50 (BXPC-3 [1]): 9.05 µM
- TGI (BXPC-3 [1]): 6.33 µM
- LC50 (HUVEC): 100 µM
- TGI (HUVEC): 7.62 µM
- GI50 at 48 h [2]: 4.8 µM
- IC50 [3]: 1.2 µM
- GI50 (HL-60(TB)): 5.97 µM
- LC50 (HL-60(TB)): 100 µM
- TGI (HL-60(TB)): 9.92 µM
- GI50 (NCI-H460): 3.74 µM
- LC50 (concentration killing 50% of cells) (NCI-H460): 9.7 µM
- TGI (NCI-H460): 6.72 µM
- GI50 (IGROV-1): 3.32 µM
- TGI (IGROV-1): 6.1 µM
- CC50 (IGROV-1): 8.89 µM
- GI50 (HCT-15): 3.4 µM
- LC50 (HCT-15): 8.9 µM
- TGI (HCT-15): 6.15 µM
- GI50 (SF-268): 3.45 µM
- TGI (SF-268): 6.11 µM
- CC50 (SF-268): 8.76 µM
- IC50 [4]: > 1 µM
- GI50 (DMS-114): 3.97 µM
- TGI (DMS-114): 6.51 µM
- CC50 (DMS-114): 9.05 µM
- IC50 [5]: 0.0124 µM
- GI50 (HCT-116): 3.67 µM
- TGI (HCT-116): 6.54 µM
- CC50 (HCT-116): 9.41 µM
- GI50 (LOX IMVI): 2.79 µM
- LC50 (concentration killing 50% of cells) (LOX IMVI): 8.11 µM
- TGI (LOX IMVI): 5.45 µM
- GI50 at 48 h [10]: 2.97 µM
- LC50 (NHDF): 9.49 µM
- TGI (NHDF): 6.23 µM
- GI50 (SK-HEP1): 3.91 µM
- TGI (SK-HEP1): 6.48 µM
- CC50 (SK-HEP1): 9.04 µM
- GI50 (OVCAR-5): 4.27 µM
- TGI (OVCAR-5): 7.33 µM
- CC50 (OVCAR-5): 10.4 µM
- GI50 (MCF7): 2.49 µM
- TGI (MCF7): 5.59 µM
- CC50 (MCF7): 8.68 µM
- GI50 at 48 h [9]: 4.87 µM
- LC50 [9]: 9.33 µM
- TGI [9]: 7.1 µM
